According to patent US10870662B2, “Alpha-amino pateamine A derivatives and methods for treating chronic lymphocytic leukemia” (The Texas A&M University System, priority 2015, dated 2020):
Where two headings read alike, the source gives them in different places.

What was measured:
[1] = tested on: chronic lymphocytic leukemia (CLL) cells; experiment: CLL cell killing assay (annexin V / propidium iodide flow cytometry, 24 h); type: cell-based, human; conditions: primary CLL cells
Protocol: Biological Activity of 2-Amino Pateamine Derivatives Peripheral blood from the CLL patients were collected in heparin vacutainer tubes and centrifuged at 1500 rpm for 15 min to separate the plasma. The plasma (upper layer) was removed and saved for cell culture. The lower layer was diluted with phosphate-buffered saline (PBS), and the mononuclear cells were isolated by Ficoll density-gradient centrifugation. The isolated CLL cells were cultured at 1×10^7 cells/mL in RPMI 1640 medium containing 10% of fetal bovine serum, 10% autologous plasma, or 50% autologous plasma. Cell death in CLL lymphocytes was evaluated by flow cytometry analysis using annexin V and propidium iodide (PI) double staining. After incubation with increasing concentrations of PatA analogs for 24 hours, CLL cells (1×10^6 cells) were stained in 100 μL binding buffer with 5 μL annexin-Cy5, and incubated for 15 minutes in dark at room temperature. After staining, 300 μL binding buffer with 5 μL of 50 μg/mL propidium iodide were added to each tube. Samples were analyzed immediately by flow cytometer. Cells stained positive for either annexin V or PI were considered dead cells. The IC50 values of CLL killing were determined by non-linear fitting of the survival curve by the GraphPad Prism software.

[2] = Plasma protein binding (PPB) assay; type: in vitro ADME; conditions: preliminary data
Protocol: In this example, a representative plasma protein binding (PPB) assay used to provide the plasma protein binding data is described.
The assay includes the following steps.
1. Frozen plasma was thawed and centrifuged at 1120 g for 10 min to remove any particulates. The plasma was decanted, the pH was measured and, if required, was adjusted to pH7.4 with lactic acid.
2. All compounds were prepared at 10 mM concentration in DMSO. The solutions were carefully vortexed to ensure the compounds dissolved. The 10 mM DMSO solutions were diluted to 500 μM MeOH solutions (5+95 μl).
3. In a 2 mL 96-well plate (DWP), 1000 μL of plasma was pipetted into each well in Columns 1-4.
4. 10 μL of the 500 μM compound solution was pipetted to 1000 μL of corresponding plasma. (The final DMSO=0.05%). The solution was capped and carefully vortexed for 5 min.
5. 200 μL of PBS buffer was added to each receiver well of the dialysis plate (buffer was added to the Receiver first).
6. The bottom of dialysis plate was capped and turned over to the orange donor side (top) of dialysis plate.
7. The orange donor side of the dialysis plate was uncapped and 200 μL of the […] drug/plasma samples were transferred from the 2 ml 96-DWP to the corresponding donor wells in the dialysis plate. […]
23. The samples in the Receiver Plate, Donor Plate, and Recovery Plate were analyzed by LC/MS/MS […]

[3] = tested on: models of human leukemia and melanoma; conditions: mice; cited from earlier work
[4] = tested on: P388 murine leukemia cells; conditions: read-out: IC50, cytotoxic activity against P388 murine leukemia cells; cited from earlier work
[5] = RPMI 1640 with 10% autologous (human) plasma, read-out: IC50 CLL Assay, 10% plasma
[6] = RPMI 1640 with 10% fetal bovine serum, read-out: IC50 CLL Assay, 10% FBS
[7] = CLL cell, RPMI 1640 with 10% autologous (human) plasma, read-out: IC50 CLL Assay, 10% plasma
[8] = CLL cell, RPMI 1640 with 50% autologous (human) plasma, read-out: IC50 CLL Assay, 50% plasma
[9] = Homo sapiens, CLL cell, RPMI 1640 with 10% fetal bovine serum, read-out: IC50 CLL Assay, 10% FBS

“1,1,1-Trichloro-2-methylpropan-2-yl ((1^2Z,3S,6Z,8E,11S,14R)-3-((1E,3E,5E)-7-(dimethylamino)-2,5-dimethylhepta-1,3,5-trien-1-yl)-9,11-dimethyl-5,13-dioxo-4,12-dioxa-1 (2,4)-thiazol acycloheptadecaphane-6,8-dien-14-yl)carbamate [MZ756]” showed an IC50 [1, 5] of 5610 nM and an IC50 [1, 6] of 1890 nM.

Work on `CC(/C=C/C(C)=C/[C@@H]1Cc2nc(cs2)CCCCC(=O)O[C@@H](C)C/C(C)=C/C=C\C(=O)O1)=C\CN(C)C` [DMDA Pat A, Des-methyl, des-amino pateamine A, reference compound] yielded an IC50 [1, 7] of 5370 nM, an IC50 [1, 8] greater than 10000 nM and an IC50 [1, 9] of 710 nM. The “plasma protein binding in human plasma” value [2] was “highly protein bound” and the “activity in xenograft models” value [3] was “significant tumor reduction”.

`C/C(Br)=C\[C@@H]1Cc2nc(cs2)CCC[C@H](NC(=O)OC(C)(C)C)C(=O)O[C@@H](C)C/C(C)=C/C=C\C(=O)O1` [MZ554, tert-Butyl-((1^2Z,3S,6Z,8E,11S,14S)-3-((E)-2-bromoprop-1-en-1-yl)-9,11-dimethyl-5,13-dioxo-4,12-dioxa-1(2,4)-thiazolacycloheptadecaphane-6,8-dien-14-yl)carbamate] showed an IC50 [1, 7] greater than 10000 nM and an IC50 [1, 9] greater than 10000 nM.

Work on `CC(Br)=CC1Cc2nc(cs2)CCCC(NC(=O)OC(C)(C)C(Cl)(Cl)Cl)C(=O)OC(C)CC(C)=CC=CC(=O)O1` [MZ569a, 1,1,1-Trichloro-2-methylpropan-2-yl ((1^2Z,3S,6Z,8E,11S,14S)-3-((E)-2-bromoprop-1-en-1-yl)-9,11-dimethyl-5,13-dioxo-4,12-dioxa-1(2,4)-thiazolacycloheptadecaphane-6,8-dien-1^4-yl) carbamate] yielded an IC50 [1, 5] greater than 10000 nM and an IC50 [1, 6] greater than 10000 nM.

In the case of `C/C(Br)=C\[C@@H]1Cc2nc(cs2)CCC[C@H](NC(=O)C(F)(F)F)C(=O)O[C@@H](C)C/C(C)=C/C=C\C(=O)O1` [MZ569b, N-((1^2Z,3S,6Z,8E,11S,14S)-3-((E)-2-Bromoprop-1-en-1-yl)-9,11-dimethyl-5,13-dioxo-4,12-dioxa-1 (2,4)-thiazolacycloheptadecaphane-6,8-dien-1^4-yl)-2,2,2-trifluoroacetamide], the IC50 [1, 7] is reported as greater than 10000 nM and the IC50 [1, 9] is reported as greater than 10000 nM.

For `CC(C=CC(C)=CC1Cc2nc(cs2)CCCC(NC(=O)OC(C)(C)C(Cl)(Cl)Cl)C(=O)OC(C)CC(C)=CC=CC(=O)O1)=CCN(C)C` [MZ576, 1,1,1-Trichloro-2-methylpropan-2-yl((1^2Z,3S,6Z,8E,11 S,14S)-3-((1E,3E,5E)-7-(dimethylamino)-2,5-dimethylhepta-1,3,5-trien-1-yl)-9,11-dimethyl-5,13-dioxo-4,12-dioxa-1 (2,4)-thiazolacycloheptadecaphane-6,8-dien-14-yl)carbamate], the IC50 [1, 5] was 6690 nM and the IC50 [1, 6] was 3200 nM.

`CC(/C=C/C(C)=C/[C@@H]1Cc2nc(cs2)CCC[C@H](N)C(=O)O[C@@H](C)C/C(C)=C/C=C\C(=O)O1)=C\CN(C)C` [MZ577, (12Z,3S,6Z,8E,11S,14S)-14-Amino-3-((1E,3E,5E)-7-(dimethylamino)-2,5-dimethylhepta-1,3,5-trien-1-yl)-9,11-dimethyl-4,12-dioxa-1(2,4)-thiazolacycloheptadecaphane-6,8-diene-5,13-dione] gave an IC50 [1, 7] of 6360 nM and an IC50 [1, 9] of 3010 nM.

`CC(/C=C/C(C)=C/[C@@H]1Cc2nc(cs2)CCC[C@H](NC(=O)OC(C)(C)C)C(=O)O[C@@H](C)C/C(C)=C/C=C\C(=O)O1)=C\CN(C)C` [MZ578, tert-Butyl ((1^2Z,3S,6Z,8E,11S,14S)-3-((1E,3E,5E)-7-(dimethylamino)-2,5-dimethylhepta-1,3,5-trien-1-yl)-9,11-dimethyl-5,13-dioxo-4,12-dioxa-1(2,4)-thiazolacycloheptadecaphane-6,8-dien-14-yl) carbamate] gave an IC50 [1, 7] of 2010 nM, an IC50 [1, 8] of 8120 nM and an IC50 [1, 9] of 830 nM.

Compound `CC(/C=C/C(C)=C/[C@@H]1Cc2nc(cs2)CCC[C@H](NC(=O)C(F)(F)F)C(=O)O[C@@H](C)C/C(C)=C/C=C\C(=O)O1)=C\CN(C)C` [MZ579, N-((1^2Z,3S,6Z,8E,11S,14S)-3-((1E,3E,5E)-7-(dimethylamino)-2,5-dimethylhepta-1,3,5-trien-1-yl)-9,11-dimethyl-5,13-dioxo-4,12-dioxa-1(2,4)-thiazolacycloheptadecaphane-6,8-dien-14-yl)-2,2,2-trifluoroacetamide] has an IC50 [1, 7] of 1790 nM, an IC50 [1, 8] of 7180 nM and an IC50 [1, 9] of 550 nM.

Compound `CC(=O)N[C@H]1CCCc2csc(n2)C[C@@H](/C=C(C)/C=C/C(C)=C/CN(C)C)OC(=O)/C=C\C=C(/C)C[C@H](C)OC1=O` [MZ623, N-((1^2Z,3S,6Z,8E,11S,14S)-3-((1E,3E,5E)-7-(dimethylamino)-2,5-dimethylhepta-1,3,5-trien-1-yl)-9,11-dimethyl-5,13-dioxo-4,12-dioxa-1(2,4)-thiazolacycloheptadecaphane-6,8-dien-14-yl) acetamide] has an IC50 [1, 7] of 460 nM and an IC50 [1, 9] of 310 nM.

`CC(/C=C/C(C)=C/[C@@H]1Cc2nc(cs2)CCC[C@H](NS(C)(=O)=O)C(=O)O[C@@H](C)C/C(C)=C/C=C\C(=O)O1)=C\CN(C)C` [MZ624, N-((1^2Z,3S,6Z,8E,11 S,14S)-3-((1E,3E,5E)-7-(dimethylamino)-2,5-dimethylhepta-1,3,5-trien-1-yl)-9,11-dimethyl-5,13-dioxo-4,12-dioxa-1(2,4)-thiazolacycloheptadecaphane-6,8-dien-14-yl) methanesulfonamide] showed an IC50 [1, 7] of 650 nM and an IC50 [1, 9] of 370 nM.

`CC(=O)N[C@@H]1CCCc2csc(n2)C[C@@H](/C=C(C)/C=C/C(C)=C/CN(C)C)OC(=O)/C=C\C=C(/C)C[C@H](C)OC1=O` [MZ757, N-((1^2Z,3S,6Z,8E,11S,14R)-3-((1E,3E,5E)-7-(dimethylamino)-2,5-dimethylhepta-1,3,5-trien-1-yl)-9,11-dimethyl-5,13-dioxo-4,12-dioxa-1(2,4)-thiazolacycloheptadecaphane-6,8-dien-14-yl) acetamide] showed an IC50 [1, 7] of 450 nM and an IC50 [1, 9] of less than 50 nM.

With `CC(/C=C/C(C)=C/[C@@H]1Cc2nc(cs2)[C@@H](C)C[C@@H](N)CC(=O)O[C@@H](C)C/C(C)=C/C=C\C(=O)O1)=C\CN(C)C` [PatA, Pateamine A] the IC50 [1, 7] was 160 nM, the IC50 [1, 8] was 470 nM and the IC50 [1, 9] was 150 nM. For the same compound, the IC50 [4] was 0.27 nM.
